From US20160272613A1, “Pyridazinone Derivatives and their use as Herbicides” (BAYER CROPSCIENCE AKTIENGESELLSCHAFT, priority 2013, published 2016)

Tests used:
Type in all cases: in vivo
Abutilon theophrasti [1] = test: Pre-emergence herbicidal action against harmful plants; details: 320 g/ha, visual score after 3 weeks vs untreated controls
Source text: (§1) Seeds of monocotyledonous and dicotyledonous weed plants and crop plants are laid out in wood-fiber pots in sandy loam and covered with soil. The compounds of the invention, formulated in the form of wettable powders (WP) or as emulsion concentrates (EC), are then applied to the surface of the covering soil in the form of an aqueous suspension or emulsion at a water application rate equating to 600 to 800 l/ha, with addition of 0.2% wetting agent. After the treatment, the pots are placed in a greenhouse and kept under good growth conditions for the trial plants. The damage to the trial plants is scored visually after a trial duration of 3 weeks by comparison with untreated controls (herbicidal activity in percent (%): 100% efficacy=the plants have died, 0% efficacy=like control plants). In this trial, for example, compound no.

Amaranthus retroflexus = test: as above; details: 320 g/ha, visual score after 3 weeks vs untreated controls
Source text: as §1

Ipomoea purpurea [2] = test: as above; details: 320 g/ha, visual score after 3 weeks vs untreated controls
Source text: as §1

Cyperus esculentus = test: as above; details: 320 g/ha, visual score after 3 weeks vs untreated controls
Source text: as §1

Viola tricolor [3] = test: as above; details: 320 g/ha, visual score after 3 weeks vs untreated controls
Source text: as §1

Stellaria media [4] = test: as above; details: 320 g/ha, visual score after 3 weeks vs untreated controls
Source text: as §1

Veronica persica [5] = test: as above; details: 320 g/ha, visual score after 3 weeks vs untreated controls
Source text: as §1

Abutilon theophrasti [6] = test: Post-emergence herbicidal action against harmful plants; details: 80 g/ha, visual score after about 3 weeks vs untreated controls
Experimental: (§2) Seeds of monocotyledonous and dicotyledonous weed and crop plants are laid out in sandy loam in wood-fiber pots, covered with soil and cultivated in a greenhouse under good growth conditions. 2 to 3 weeks after sowing, the trial plants are treated at the one-leaf stage. The compounds of the invention, formulated in the form of wettable powders (WP) or as emulsion concentrates (EC), are then sprayed onto the green parts of the plants in the form of an aqueous suspension or emulsion at a water application rate equating to 600 to 800 I/ha, with addition of 0.2% wetting agent. After the trial plants have been left to stand in a greenhouse under optimal growth conditions for about 3 weeks, the efficacy of the formulations is scored visually in comparison to untreated controls (herbicidal action in percent (%): 100% efficacy=the plants have died, 0% efficacy=like control plants). In this trial, for example, compound no.

Ipomoea purpurea [7] = test: as above; details: 80 g/ha, visual score after about 3 weeks vs untreated controls
Experimental: as §2

Viola tricolor [8] = test: as above; details: 80 g/ha, visual score after about 3 weeks vs untreated controls
Experimental: as §2

Stellaria media [9] = test: as above; details: 80 g/ha, visual score after about 3 weeks vs untreated controls
Experimental: as §2

Veronica persica [10] = test: as above; details: 80 g/ha, visual score after about 3 weeks vs untreated controls
Experimental: as §2

Cn1ncc(-c2ccc(C(F)(F)F)c(=O)n2C)c(O)c1=O [1-4, 4-hydroxy-2-methyl-5-(1-methyl-3-(trifluoromethyl)pyrid-2-on-6-yl)-pyridazin-3-one]
at least 80%: herbicidal activity in percent (efficacy) (Abutilon theophrasti [1]) | herbicidal activity in percent (efficacy) (Amaranthus retroflexus) | herbicidal activity in percent (efficacy) (Ipomoea purpurea [2]) | herbicidal activity in percent (efficacy) (Cyperus esculentus) | herbicidal activity in percent (efficacy) (Viola tricolor [3]) | herbicidal activity in percent (efficacy) (Stellaria media [4]) | herbicidal activity in percent (efficacy) (Veronica persica [5]) | herbicidal action in percent (efficacy) (Abutilon theophrasti [6]) | herbicidal action in percent (efficacy) (Ipomoea purpurea [7]) | herbicidal action in percent (efficacy) (Viola tricolor [8]) | herbicidal action in percent (efficacy) (Stellaria media [9]) | herbicidal action in percent (efficacy) (Veronica persica [10])
